Source: patent US20040006047A1, “Heterocyclic amides, a process for their preparation, compositions comprising them and their use” (priority 2001, published 2004)

Row | SMILES | melting point
1 | O=C(NC1CCOCC1)c1cnccc1C(F)(F)F [Example A, N-(Tetrahydropyran-4-yl)-4-trifluoromethylnicotinamide] | 149 to 150 °C
2 | O=C(NC1CC[S+]([O-])CC1)c1cnccc1C(F)(F)F (stereo not shown) [Example C, N-(Tetrahydrothiopyran-4-yl)-4-trifluoromethylnicotinamide S-oxide] | 243 to 244 °C
3 | O=C(NC1CCS(=O)(=O)CC1)c1cnccc1C(F)(F)F [Example D, N-(Tetrahydrothiopyran-4-yl)-4-trifluoromethylnicotinamide S,S-dioxide] | 248 °C (dec.)
4 | CC1(C)OCC(NC(=O)c2cnccc2C(F)(F)F)CO1 [Example E, N-(2,2-Dimethyl-1,3-dioxa-cyclohexyl)-4-trifluoromethylnicotinamide] | 155 to 156 °C
